Results: ChEMBL document CHEMBL2401653, “Synthesis, structure-property relationships and pharmacokinetic evaluation of ethyl 6-aminonicotinate sulfonylureas as antagonists of the P2Y₁₂ receptor” (Eur J Med Chem, 2013)
pIC50: −log10 of the molar value. Converted amounts (≈) assume the structure as drawn.

Assays:
[1] = Aqueous solubility of the compound; format: physicochemical; conditions: buffer
[2] = Stability of the compound in MeCN assessed as compound remaining at room temperature; format: physicochemical
[3] = 1-octanol-phosphate buffer distribution coefficient, log D of the compound at pH 7.4 after 2 days by shake flask method; format: physicochemical
P2Y purinoceptor 12 [4] = molecular target: T1, P2Y purinoceptor 12 (Homo sapiens, UniProt Q9H244)
T1 sequence (Q9H244 whole entry): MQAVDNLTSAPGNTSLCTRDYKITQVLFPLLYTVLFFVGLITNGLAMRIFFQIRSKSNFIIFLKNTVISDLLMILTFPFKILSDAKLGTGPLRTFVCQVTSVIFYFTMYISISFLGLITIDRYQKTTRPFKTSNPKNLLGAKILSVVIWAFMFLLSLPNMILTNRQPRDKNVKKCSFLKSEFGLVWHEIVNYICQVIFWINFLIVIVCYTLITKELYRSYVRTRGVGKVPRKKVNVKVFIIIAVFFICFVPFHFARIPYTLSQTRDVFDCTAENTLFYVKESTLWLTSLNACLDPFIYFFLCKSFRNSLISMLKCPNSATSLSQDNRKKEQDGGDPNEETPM

P2Y purinoceptor 12 [5] = molecular target: T1, P2Y purinoceptor 12; remark: listed apart in the source
Description: Displacement of [125I]-AZ11931285 from P2Y12 receptor (unknown origin) after 1 hr by scintillation counting analysis

physchem [6] = conditions: HBSS buffer, pH 6.8
Description: Kinetic solubility in HBSS buffer at pH 6.8 after 16 hrs by LC-UV/MS analysis

[7] = Stability of the compound in MeCN assessed as compound remaining at 5 degC after 4 months; format: physicochemical; conditions: read-out: Stability
Liver microsomes [8] = assay: Metabolic stability in rat liver microsomes at 1 umol/L by LC/MS analysis in absence of NADPH; format: ADME, Microsome; conditions: 1 µM
Liver microsomes [9] = assay: Metabolic stability in human liver microsomes at 1 umol/L by LC/MS analysis in absence of NADPH; format: ADME, Microsome; conditions: 1 µM
[10] = Apparent Permeability across apical to basolateral side in human Caco2 cells at 1 to 10 uM measured at 30 to 90 mins by LC/MS analysis; format: ADME, cell-based; conditions: Caco-2
Liver microsomes [11] = assay: Intrinsic clearance in human liver microsomes at 1 umol/L by LC/MS analysis in presence of NADPH; format: ADME, Microsome; conditions: 1 µM
Liver microsomes [12] = assay: Intrinsic clearance in rat liver microsomes at 1 umol/L by LC/MS analysis in presence of NADPH; format: ADME, Microsome; conditions: 1 µM
[13] = Half life in po dosed rat; format: ADME, organism-based; conditions: in vivo
[14] = Half life in iv dosed rat; format: ADME, organism-based; conditions: in vivo
[15] = Oral bioavailability in rat; format: ADME, organism-based; conditions: in vivo
[16] = Clearance in iv dosed rat; format: ADME, organism-based; conditions: in vivo
Plasma = assay: Metabolic stability in rat plasma by HRMS analysis; format: ADME, cell-free
[17] = Fraction unbound in human plasma; format: ADME, cell-free
[18] = Stability of the compound in EtOH at room temperature after 21 days by LC/MS analysis; format: physicochemical; conditions: 504 h
[19] = Stability of the compound in MeCN at room temperature after 21 days by LC/MS analysis; format: physicochemical; conditions: 504 h
physchem [20] = conditions: HBSS buffer, pH 7.4
Description: Kinetic solubility in HBSS buffer at pH 7.4 after 16 hrs by LC-UV/MS analysis

| Structure (SMILES) | Stability [2] | logD at 48 h [3] | pIC50 (P2Y purinoceptor 12 [4]) | pIC50 (P2Y purinoceptor 12 [5]) | Stability (Liver microsomes [8]) | Stability (Liver microsomes [9]) | Papp A→B at up to 10 µM [10] [×10⁻⁶ cm/s] | Intrinsic clearance (CLint) (Liver microsomes [11]) [µL/min/mg] | Intrinsic clearance (Liver microsomes [12]) [µL/min/mg] | half-life [13] [h] | half-life [14] [h] | bioavailability [15] [%] | clearance [16] [mL/min/kg] | other results |
| --- | --- | --- | --- | --- | --- | --- | --- | --- | --- | --- | --- | --- | --- | --- |
| CCOC(=O)c1cc(C#N)c(N2CCN(C(=O)Nc3ccccc3)CC2)nc1C(F)(F)F | Stable | 5 |  |  |  |  |  |  |  |  |  |  |  | solubility [1]: < 0.1 µM |
| CCOC(=O)c1cc(C#N)c(N2CCN(C(=O)NCCc3cccs3)CC2)nc1C(F)(F)F | Stable | 5 | 6.29 | 5.89 |  |  |  |  |  |  |  |  |  | solubility kinetic at 16 h (physchem [6]): 15 µM (≈ 7.22 µg/mL) |
| CCOC(=O)c1cc(C#N)c(N2CCN(C(=O)NS(=O)(=O)c3ccc(Cl)s3)CC2)nc1C(F)(F)F | Stable | 1.1 | 7.41 | 7.10 | Stable | Stable | 0.076 |  |  |  |  |  |  | remaining at 2922 h [7]: 10% |
| CCOC(=O)c1cc(C#N)c(N2CCN(C(=O)NS(=O)(=O)c3ccccc3)CC2)nc1C(F)(F)F | Stable |  | 6.66 | 6.77 | Stable | Stable | 0.6 | > 70 | > 104 |  |  |  |  |  |
| CCOC(=O)c1cc(C#N)c(N2CCN(C(=O)NS(=O)(=O)c3ccc(C)cc3)CC2)nc1C(F)(F)F | Stable | 1.3 | 7.05 | 6.92 |  |  | 0.22 | > 70 | > 104 | 0.65 | 1.5 | 20 | 89 | remaining at 2922 h [7]: 52% |
| CCOC(=O)c1cnc(N2CCN(C(=O)NS(=O)(=O)c3ccc(Cl)s3)CC2)c(Cl)c1 | Stable | 0.9 | 7.00 | 7.05 | Stable | Stable | 0.11 | > 70 | > 104 | 2.4 | 0.92 | 15 | 36 | Stability (Plasma): Unstable; fraction unbound [17]: < 0.015 |
| CCOC(=O)c1cnc(N2CCN(C(=O)NS(=O)(=O)c3ccc(Cl)cc3)CC2)c(Cl)c1 | Stable | 1.3 | 6.42 | 6.28 |  |  | 1.2 | > 70 | > 104 |  |  |  |  | Stability [18]: Unstable; Stability [19]: Stable |
| CCOC(=O)c1cc(C#N)c(N2CC(NC(=O)NS(=O)(=O)c3ccc(Cl)s3)C2)nc1C | Stable | 0.8 |  |  |  |  | 0.11 |  | > 104 |  |  |  |  | solubility [1]: 83 µM (≈ 40.2 µg/mL) |
| CCOC(=O)c1cnc(N2CC(NC(=O)NS(=O)(=O)c3ccccc3)C2)c(Cl)c1 | Stable | 0.8 | 6.42 | 6.37 | Stable | Stable | 3.9 |  |  | 2.1 | 0.17 | 20 | 29 | Stability [18]: Stable; Stability [19]: Stable; Stability (Plasma): Unstable; fraction unbound [17]: < 0.015 |
| CCOC(=O)c1cc(C#N)c(N2CC(NC(=O)NS(=O)(=O)c3ccccc3)C2)nc1C | Stable | 0.4 | 6.72 | 7.21 |  |  | 0.41 | < 13 | < 19 | 9 | 1.7 | 39 | 13 | Stability (Plasma): Unstable; fraction unbound [17]: < 0.015 |
| CCOC(=O)c1cc(C#N)c(N2CC(NC(=O)NS(=O)(=O)Cc3ccccc3)C2)nc1C | Stable | 1.1 | 7.09 | 7.10 |  |  | 1.2 |  |  | 1.3 | 0.55 | 3 | 31 | Stability (Plasma): Unstable; fraction unbound [17]: < 0.015 |
| CCOC(=O)c1cnc(N2CCC(NC(=O)NS(=O)(=O)c3ccccc3)CC2)c(Cl)c1 | Stable | 1.5 | 5.49 | 5.32 |  |  |  |  |  |  |  |  |  | Stability [18]: Unstable; Stability [19]: Stable |
| CCOC(=O)c1cc(C#N)c(N2CCN(C(=O)NS(=O)(=O)c3ccc(Cl)s3)CC2)nc1C | Stable | 1 | 7.47 | 7.38 | Stable | Stable | 0.058 | > 70 | > 104 |  |  |  |  | solubility [1]: 90 µM (≈ 44.8 µg/mL) |
| CCOC(=O)c1cnc(N2CCN(C(=O)NS(=O)(=O)c3ccccc3)CC2)c(Cl)c1 | Stable |  | 6.66 | 6.74 | Stable | Stable | 0.28 | > 70 | > 104 |  |  |  |  | solubility kinetic at 16 h (physchem [6]): 100 µM (≈ 45.3 µg/mL) |
| CCOC(=O)c1cnc(N2CCN(C(=O)NS(=O)(=O)c3ccccc3C)CC2)c(Cl)c1 | Stable |  | 6.59 | 6.82 |  |  |  | > 70 | > 104 |  |  |  |  | solubility kinetic at 16 h (physchem [20]): 210 µM (≈ 98.1 µg/mL) |
| CCOC(=O)c1cnc(N2CCN(C(=O)NS(=O)(=O)c3ccc(C)cc3)CC2)c(Cl)c1 | Stable |  | 6.52 | 6.52 |  |  | 2.5 | > 70 | > 104 |  |  |  |  | Stability [18]: Unstable; Stability [19]: Stable; solubility kinetic at 16 h (physchem [20]): 490 µM (≈ 229 µg/mL) |
| CCOC(=O)c1cc(C#N)c(N2CCN(C(=O)NS(=O)(=O)c3ccc(Cl)s3)C(CCC(=O)O)C2)nc1C(F)(F)F (racemic) | Stable |  | 6.96 | 7.02 |  |  | 0.19 | < 13 | > 104 | 4 | 0.62 | 0.83 | 46 | Stability (Plasma): Unstable; fraction unbound [17]: < 0.015 |
| CCOC(=O)c1cnc(N2CCN(C(=O)Nc3ccccc3)CC2CCC(=O)O)c(Cl)c1 (racemic) | Stable |  | 5.66 | 6.17 |  |  |  |  |  |  |  |  |  | solubility kinetic at 16 h (physchem [6]): 96 µM (≈ 44.2 µg/mL) |
